T1: 35S-labeled ORE9 (50-693), in vitro translated (Arabidopsis thaliana, UniProt Q9SIM9 50-693)
T1 sequence: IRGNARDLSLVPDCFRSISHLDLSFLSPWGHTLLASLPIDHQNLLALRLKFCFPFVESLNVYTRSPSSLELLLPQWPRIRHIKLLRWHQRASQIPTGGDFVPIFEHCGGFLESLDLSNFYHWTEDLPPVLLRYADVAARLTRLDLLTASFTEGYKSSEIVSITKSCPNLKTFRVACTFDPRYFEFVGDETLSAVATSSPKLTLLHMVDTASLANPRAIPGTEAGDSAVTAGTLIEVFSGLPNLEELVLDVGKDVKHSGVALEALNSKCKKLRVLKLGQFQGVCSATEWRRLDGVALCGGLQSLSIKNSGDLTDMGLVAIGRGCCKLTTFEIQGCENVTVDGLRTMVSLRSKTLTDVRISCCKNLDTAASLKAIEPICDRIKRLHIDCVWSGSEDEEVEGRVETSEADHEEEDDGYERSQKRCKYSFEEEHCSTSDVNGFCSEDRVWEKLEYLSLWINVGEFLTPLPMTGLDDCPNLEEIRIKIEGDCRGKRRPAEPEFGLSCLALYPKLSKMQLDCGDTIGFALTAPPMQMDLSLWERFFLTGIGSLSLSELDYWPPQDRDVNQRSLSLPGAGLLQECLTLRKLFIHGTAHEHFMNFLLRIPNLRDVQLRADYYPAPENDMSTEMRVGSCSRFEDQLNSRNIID


Key:
ore9 mutant leaves = format: in vivo, Arabidopsis thaliana; details: detached leaves at 12 DAE, 50 μM ABA or 50 μM MeJA in MES buffer pH 5.8, or 4.5 μM ethylene gas, three days at 22° C., continuous light
Description: (§1) In order to measure photosynthetic activities, a method of Oh S. A. et al., (Oh S. A. et al., Plant Mol. Biol. 30: 939, 1996) was used. First, the respective leaves were dark-treated for 15 minutes and measured for fluorescence of chlorophylls using a plant efficiency analyzer. The photosynthetic activity was expressed as photochemical efficiency of photosystemII (PSII) using a fluorescent property of chlorophylls. The photochemical efficiency was expressed as the ratio of maximum variable fluorescence (Fv) to maximum value of fluorescence (Fm) (Fv/Fm). As the ratio is increased, the photosynthesis efficiency improves.
(§2) Although senescence of leaves is known as a genetic programmed process, the initiation and progress of senescence can be changed by phytohormones, such as abscisic acid (ABA), methyl jasmonate (MeJA) and ethylene, that are plant growth inhibitory substances (Hensel et al., Plant Cell 5:553, 1993; Weidhase et al., Physiol. Plant 69:161, 1987; and Zeevaart et al, Annu. Rev. Plant Physiol. Plant Mol. Biol. 39:439, 1998). Thus, in this experiment, a change in leaf longevity of the ore9 mutant according to treatment with phytohormones was examined by measuring changes in photosynthetic activity and chlorophyll content. Detached leaves were floated in 3 mM 2-[N-morpholino]-ethanesulfonic acid (MES) buffer, pH 5.8, containing 50 μM ABA or 50 μM MeJA, while continuously being exposed to light. Treatment with ethylene was carried out by cultivation in a glass box containing 4.5 μM ethylene gas. The treatments with phytohormones as described above were carried out for three days at 22° C. with continuous exposure to light. At this time, 12 independent leaves at 12 DAE were used as samples, and the chlorophyll content and the photosynthetic activity were measured in the same manner as in Example 2.

[1] = tested on: wild type Arabidopsis thaliana leaves; assay: Phytohormone treatment of detached leaves, photosynthetic activity (Fv/Fm of PSII); format: in vivo; details: detached leaves at 12 DAE, 50 μM ABA or 50 μM MeJA in MES buffer pH 5.8, or 4.5 μM ethylene gas, three days at 22° C., continuous light
Description: as §1, §2

[2] = target: T2, GAL4-BD fusion of ORE9 (50-693), expressed from pGBT9-ORE9 (50-693) [2] (Arabidopsis thaliana); assay: yeast two-hybrid assay
T2 construct: Yeast two-hybrid bait expressed in yeast HF7c; also called ORE9 derivative from which the F-box region was removed

[3] = target: T1, 35S-labeled ORE9 (50-693), in vitro …; assay: in vitro GST pull-down of 35S-labeled protein
Text: In order to examine that ORE9 protein or derivatives thereof directly bind with ASK1, a GST-ASK1 fusion protein and a ³⁵S-labeled ORE9 protein produced by in vitro translation were subjected to in vitro binding assay. To obtain a glutathione S-transferase (GST) protein and a GST-ASK1 fusion protein, a vector pGEX (APBiotech, Co.) and a vector pGEX-ASK1 were constructed, which express the above proteins, respectively. Artificial sequences represented by SEQ ID NO: 14 and SEQ ID NO: 15 were used as PCR primers to amplify a gene encoding the ASK1 fragment. The resulting PCR product was digested with EcoRI and NcoI restriction enzymes, and inserted into the restriction enzyme sites of the pGEX vector. Escherichia coli BL21(DE3) pLysS was transformed with the resulting two vectors, and GST and GST-ASK1 fusion proteins were expressed. The GST and GST-ASK1 fusion proteins were purified by chromatography with glutathione-Sepharose 4B beads. The purified proteins was subjected to electrophoresis with SDS-polyacryamide gets, dyed with Coomassie blue, and measured for their amount. […]
The proteins were quantitatively analyzed with SDS-PAGE and BAS radioanalytic imaging system (Japan). […]

[4] = target: T3, GAL4-BD fusion of ORE9 (1-49), expressed from pGBT9-ORE9 (1-49) [1] (Arabidopsis thaliana); assay: yeast two-hybrid assay, combination [1+4]
T3 construct: Yeast two-hybrid bait expressed in yeast HF7c; also called fragment containing only the F-box region of ORE9; pGBT-ORE9(1-49)[1]

| Molecule | photosynthetic ability maintained after treatment (ore9 mutant leaves) | photosynthetic activity after treatment [1] | other results |
| --- | --- | --- | --- |
| CC1=CC(=O)CC(C)(C)[C@@]1(O)/C=C/C(C)=C\C(=O)O [ABA, abscisic acid] | 93% | 65% |  |
| CC/C=C\CC1C(=O)CCC1CC(=O)OC (stereo not drawn) [MeJA, methyl jasmonate] | 70% | 38% |  |
| C=C [ethylene] | 82% | 54% |  |
| GAL4-AD fusion of ASK1(1-160), expressed from pGAD424-ASK1(1-160) [3] (other, Arabidopsis, UniProt Q39255 1-160, looked up, not shown: large carriers, range 1-160; also called Arabidopsis SKP1 homolog 1; pGAD-ASK1(1-160)[3]) MSAKKIVLKSSDGESFEVEEAVALESQTIAHMVEDDCVDNGVPLPNVTSKILAKVIEYCKRHVEAAASKAEAVEGAATSDDDLKAWDADFMKIDQATLFELILAANYLNIKNLLDLTCQTVADMIKGKTPEEIRTTFNIKNDFTPEEEEEVRRENQWAFE |  |  | binding result [2]: no binding |
| GST-ASK1 fusion protein (other, Arabidopsis, UniProt Q39255 1-160, looked up, not shown: a dimerising Fc or GST, also called GSK-ASK1) MSAKKIVLKSSDGESFEVEEAVALESQTIAHMVEDDCVDNGVPLPNVTSKILAKVIEYCKRHVEAAASKAEAVEGAATSDDDLKAWDADFMKIDQATLFELILAANYLNIKNLLDLTCQTVADMIKGKTPEEIRTTFNIKNDFTPEEEEEVRRENQWAFE |  |  | binding result [3]: no binding |
| GAL4-AD fusion of ASK2(1-172), expressed from pGAD424-ASK2(1-172) [4] (other, Arabidopsis, UniProt Q9FHW7 1-171, looked up, not shown: large carriers, range 1-172; Yeast two-hybrid prey; also called Arabidopsis SKP1 homolog 2) MSTVRKITLKSSDGENFEIDEAVALESQTIKHMIEDDCTDNGIPLPNVTSKILSKVIEYCKRHVEAAEKSETTADAAAATTTTTVASGSSDEDLKTWDSEFIKVDQGTLFDLILAANYLNIKGLLDLTCQTVADMIKGKTPEEIRKTFNIKNDFTPEEEEEVRRENQWAFE |  |  | binding result [4]: no binding |

Reference: patent publication US20040123344A1, “Novel gene encoding an f-box protein which regulates leaf longevity in arabidopsis thaliana and mutant gene thereof” (priority 2000, published 2004)
